Results on four molecules are retold here after paper PMC8550792, “Evolution of kinase polypharmacology across HSP90 drug discovery” (Cell Chemical Biology, 2021).

What all share (assay): biochemical
Assay type in all cases: biochemical

Test [1] deals with T1, 382 unique human kinases (Homo sapiens, UniProt Q9UM73, G1269S).
T1 construct: purchased Reaction Biology (HotSpot contract assay)
Conditions: ALK (G1269S), 10 uM; for remaining activity at 10 µM: read-out: % Enzyme Activity (relative to DMSO controls).

Test [2] has as its target T2, 382 unique human kinases (Homo sapiens, UniProt Q9BUB5).
T2 construct: purchased Reaction Biology (HotSpot contract assay)
To be noted: kinase MNK1, compound 10 uM; for remaining activity at 10 µM: read-out: % Enzyme Activity (relative to DMSO controls).

The target in test [3] is T3, 382 unique human kinases (Homo sapiens, UniProt O75676).
T3 construct: purchased Reaction Biology (HotSpot contract assay)
Conditions: kinase MSK2/RPS6KA4, compound 10 uM; for remaining activity at 10 µM: read-out: % Enzyme Activity (relative to DMSO controls).

The target of test [4] is T4, 382 unique human kinases (Homo sapiens, UniProt P15735).
T4 construct: purchased Reaction Biology (HotSpot contract assay)
T4 sequence (P15735 1-406): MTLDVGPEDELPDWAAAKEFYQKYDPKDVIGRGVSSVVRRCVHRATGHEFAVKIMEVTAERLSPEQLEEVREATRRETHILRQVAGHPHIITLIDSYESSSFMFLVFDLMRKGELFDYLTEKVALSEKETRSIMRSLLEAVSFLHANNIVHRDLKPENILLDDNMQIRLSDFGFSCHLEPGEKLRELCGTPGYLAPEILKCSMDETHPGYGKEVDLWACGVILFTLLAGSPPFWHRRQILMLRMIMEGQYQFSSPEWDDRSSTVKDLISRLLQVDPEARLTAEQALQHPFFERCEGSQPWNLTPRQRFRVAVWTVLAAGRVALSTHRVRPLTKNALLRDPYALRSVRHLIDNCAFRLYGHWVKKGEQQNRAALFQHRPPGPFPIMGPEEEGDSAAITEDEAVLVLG
Conditions: PHKg2, compound at 10 uM, duplicate values; for remaining activity at 10 µM: read-out: % Enzyme Activity (relative to DMSO controls).

The target in test [5] is T5, 382 unique human kinases (Homo sapiens, UniProt P21802, R612T).
T5 construct: purchased Reaction Biology (HotSpot contract assay)
Conditions: FGFR2 (R612T), 10 uM; for remaining activity at 10 µM: read-out: % Enzyme Activity (relative to DMSO controls).

The target in test [6] is T6, 382 unique human kinases (Homo sapiens, UniProt Q9UBS0).
T6 construct: purchased Reaction Biology (HotSpot contract assay)
To be noted: kinase p70S6Kb/RPS6KB2, compound 10 uM; for remaining activity at 10 µM: read-out: % Enzyme Activity (relative to DMSO controls).

Test [7] has as its target T7, 382 unique human kinases (Homo sapiens, UniProt P07949, R813Q).
T7 construct: purchased Reaction Biology (HotSpot contract assay)
To be noted: RET (R813Q), 10 uM; for remaining activity at 10 µM: read-out: % Enzyme Activity (relative to DMSO controls).

The target in test [8] is T8, 382 unique human kinases (Homo sapiens, UniProt P00533, A750P/DEL747-749).
T8 construct: purchased Reaction Biology (HotSpot contract assay)
To be noted: EGFR (d747-749/A750P), 10 uM; for remaining activity at 10 µM: read-out: % Enzyme Activity (relative to DMSO controls).

Test [9] concerns the target T9, 382 unique human kinases (Homo sapiens, UniProt Q9UPZ9).
T9 construct: purchased Reaction Biology (HotSpot contract assay)
T9 sequence (Q9UPZ9 1-632): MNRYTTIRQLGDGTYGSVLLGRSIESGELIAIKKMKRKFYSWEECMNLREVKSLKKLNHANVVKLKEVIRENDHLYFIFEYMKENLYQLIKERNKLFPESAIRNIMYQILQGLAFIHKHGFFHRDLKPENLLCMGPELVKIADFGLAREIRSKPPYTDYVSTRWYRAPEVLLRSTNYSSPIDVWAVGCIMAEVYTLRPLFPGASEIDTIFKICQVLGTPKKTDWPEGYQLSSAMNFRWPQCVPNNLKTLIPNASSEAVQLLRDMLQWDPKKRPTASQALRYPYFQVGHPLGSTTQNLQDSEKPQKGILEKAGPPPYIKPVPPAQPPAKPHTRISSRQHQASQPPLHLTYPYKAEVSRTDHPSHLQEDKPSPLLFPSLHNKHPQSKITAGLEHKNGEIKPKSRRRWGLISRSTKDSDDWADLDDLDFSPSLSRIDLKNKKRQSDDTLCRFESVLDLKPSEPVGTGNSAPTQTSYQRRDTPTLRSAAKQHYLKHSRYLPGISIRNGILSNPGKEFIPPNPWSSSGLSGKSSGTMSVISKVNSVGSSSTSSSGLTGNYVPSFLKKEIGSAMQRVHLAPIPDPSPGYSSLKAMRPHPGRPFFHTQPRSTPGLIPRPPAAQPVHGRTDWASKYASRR
To be noted: kinase LCK2/ICK, compound 10 uM; for remaining activity at 10 µM: read-out: % Enzyme Activity (relative to DMSO controls).

For test [10], the target named is T10, 382 unique human kinases (Homo sapiens, UniProt P21802, K526E).
T10 construct: purchased Reaction Biology (HotSpot contract assay)
Conditions: for remaining activity at 10 µM: read-out: % Enzyme Activity (relative to DMSO controls).

For test [11], the target named is T11, 382 unique human kinases (Homo sapiens, UniProt P08581, Y1230A).
T11 construct: purchased Reaction Biology (HotSpot contract assay)
Conditions: c-MET (Y1230A), 10 uM; for remaining activity at 10 µM: read-out: % Enzyme Activity (relative to DMSO controls).

For test [12], the target named is T12, 382 unique human kinases (Homo sapiens, UniProt Q6VAB6, R676S).
T12 construct: purchased Reaction Biology (HotSpot contract assay)
T12 sequence (Q6VAB6 1-950 R676S): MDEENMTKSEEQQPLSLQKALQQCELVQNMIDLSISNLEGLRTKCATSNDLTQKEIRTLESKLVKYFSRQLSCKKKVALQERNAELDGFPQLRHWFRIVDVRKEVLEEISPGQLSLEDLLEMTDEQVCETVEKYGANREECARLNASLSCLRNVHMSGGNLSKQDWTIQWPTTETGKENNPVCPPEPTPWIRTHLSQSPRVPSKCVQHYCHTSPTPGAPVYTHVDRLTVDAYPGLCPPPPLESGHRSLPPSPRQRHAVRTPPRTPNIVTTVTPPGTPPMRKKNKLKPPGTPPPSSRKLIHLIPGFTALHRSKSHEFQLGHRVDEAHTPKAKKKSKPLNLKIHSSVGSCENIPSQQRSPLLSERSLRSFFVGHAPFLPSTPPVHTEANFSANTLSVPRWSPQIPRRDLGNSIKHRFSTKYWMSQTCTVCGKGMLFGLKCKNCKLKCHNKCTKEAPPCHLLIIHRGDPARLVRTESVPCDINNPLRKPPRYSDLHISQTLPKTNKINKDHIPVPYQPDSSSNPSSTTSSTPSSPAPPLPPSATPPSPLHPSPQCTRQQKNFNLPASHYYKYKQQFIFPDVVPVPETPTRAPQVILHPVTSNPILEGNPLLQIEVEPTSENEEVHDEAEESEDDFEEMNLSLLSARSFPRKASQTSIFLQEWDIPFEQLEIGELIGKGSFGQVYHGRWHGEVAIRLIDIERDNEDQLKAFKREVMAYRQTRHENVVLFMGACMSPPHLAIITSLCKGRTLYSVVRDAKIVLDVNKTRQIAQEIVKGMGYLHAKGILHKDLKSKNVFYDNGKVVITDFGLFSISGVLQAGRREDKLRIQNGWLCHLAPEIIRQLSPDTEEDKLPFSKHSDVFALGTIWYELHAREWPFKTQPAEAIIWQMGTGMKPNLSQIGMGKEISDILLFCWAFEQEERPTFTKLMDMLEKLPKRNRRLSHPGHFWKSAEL
Conditions: KSR2 (R676S), 10 uM; for remaining activity at 10 µM: read-out: % Enzyme Activity (relative to DMSO controls).

T5 sequence (P21802 22-821 R612T): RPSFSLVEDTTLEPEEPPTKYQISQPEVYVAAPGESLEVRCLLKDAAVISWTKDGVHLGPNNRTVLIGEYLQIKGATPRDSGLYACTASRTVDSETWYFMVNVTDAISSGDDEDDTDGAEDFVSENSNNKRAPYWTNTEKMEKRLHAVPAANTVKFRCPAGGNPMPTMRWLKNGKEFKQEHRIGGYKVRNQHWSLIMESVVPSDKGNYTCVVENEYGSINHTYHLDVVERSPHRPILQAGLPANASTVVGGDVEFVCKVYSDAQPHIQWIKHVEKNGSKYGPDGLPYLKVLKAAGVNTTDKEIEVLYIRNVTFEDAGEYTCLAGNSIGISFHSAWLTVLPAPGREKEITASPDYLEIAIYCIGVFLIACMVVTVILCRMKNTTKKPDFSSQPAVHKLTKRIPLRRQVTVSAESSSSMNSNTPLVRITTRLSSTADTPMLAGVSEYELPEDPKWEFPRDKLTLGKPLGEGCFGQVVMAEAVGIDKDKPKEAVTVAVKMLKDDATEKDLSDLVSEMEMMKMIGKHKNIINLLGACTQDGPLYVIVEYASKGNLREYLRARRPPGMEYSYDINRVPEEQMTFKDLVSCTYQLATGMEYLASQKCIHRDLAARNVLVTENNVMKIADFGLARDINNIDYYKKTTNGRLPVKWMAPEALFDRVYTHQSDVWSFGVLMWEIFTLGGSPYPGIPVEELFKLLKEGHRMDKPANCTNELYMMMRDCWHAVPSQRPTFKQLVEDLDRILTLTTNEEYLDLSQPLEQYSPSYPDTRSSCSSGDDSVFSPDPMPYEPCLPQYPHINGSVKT
T1 sequence (Q9UM73 19-1620 G1269S): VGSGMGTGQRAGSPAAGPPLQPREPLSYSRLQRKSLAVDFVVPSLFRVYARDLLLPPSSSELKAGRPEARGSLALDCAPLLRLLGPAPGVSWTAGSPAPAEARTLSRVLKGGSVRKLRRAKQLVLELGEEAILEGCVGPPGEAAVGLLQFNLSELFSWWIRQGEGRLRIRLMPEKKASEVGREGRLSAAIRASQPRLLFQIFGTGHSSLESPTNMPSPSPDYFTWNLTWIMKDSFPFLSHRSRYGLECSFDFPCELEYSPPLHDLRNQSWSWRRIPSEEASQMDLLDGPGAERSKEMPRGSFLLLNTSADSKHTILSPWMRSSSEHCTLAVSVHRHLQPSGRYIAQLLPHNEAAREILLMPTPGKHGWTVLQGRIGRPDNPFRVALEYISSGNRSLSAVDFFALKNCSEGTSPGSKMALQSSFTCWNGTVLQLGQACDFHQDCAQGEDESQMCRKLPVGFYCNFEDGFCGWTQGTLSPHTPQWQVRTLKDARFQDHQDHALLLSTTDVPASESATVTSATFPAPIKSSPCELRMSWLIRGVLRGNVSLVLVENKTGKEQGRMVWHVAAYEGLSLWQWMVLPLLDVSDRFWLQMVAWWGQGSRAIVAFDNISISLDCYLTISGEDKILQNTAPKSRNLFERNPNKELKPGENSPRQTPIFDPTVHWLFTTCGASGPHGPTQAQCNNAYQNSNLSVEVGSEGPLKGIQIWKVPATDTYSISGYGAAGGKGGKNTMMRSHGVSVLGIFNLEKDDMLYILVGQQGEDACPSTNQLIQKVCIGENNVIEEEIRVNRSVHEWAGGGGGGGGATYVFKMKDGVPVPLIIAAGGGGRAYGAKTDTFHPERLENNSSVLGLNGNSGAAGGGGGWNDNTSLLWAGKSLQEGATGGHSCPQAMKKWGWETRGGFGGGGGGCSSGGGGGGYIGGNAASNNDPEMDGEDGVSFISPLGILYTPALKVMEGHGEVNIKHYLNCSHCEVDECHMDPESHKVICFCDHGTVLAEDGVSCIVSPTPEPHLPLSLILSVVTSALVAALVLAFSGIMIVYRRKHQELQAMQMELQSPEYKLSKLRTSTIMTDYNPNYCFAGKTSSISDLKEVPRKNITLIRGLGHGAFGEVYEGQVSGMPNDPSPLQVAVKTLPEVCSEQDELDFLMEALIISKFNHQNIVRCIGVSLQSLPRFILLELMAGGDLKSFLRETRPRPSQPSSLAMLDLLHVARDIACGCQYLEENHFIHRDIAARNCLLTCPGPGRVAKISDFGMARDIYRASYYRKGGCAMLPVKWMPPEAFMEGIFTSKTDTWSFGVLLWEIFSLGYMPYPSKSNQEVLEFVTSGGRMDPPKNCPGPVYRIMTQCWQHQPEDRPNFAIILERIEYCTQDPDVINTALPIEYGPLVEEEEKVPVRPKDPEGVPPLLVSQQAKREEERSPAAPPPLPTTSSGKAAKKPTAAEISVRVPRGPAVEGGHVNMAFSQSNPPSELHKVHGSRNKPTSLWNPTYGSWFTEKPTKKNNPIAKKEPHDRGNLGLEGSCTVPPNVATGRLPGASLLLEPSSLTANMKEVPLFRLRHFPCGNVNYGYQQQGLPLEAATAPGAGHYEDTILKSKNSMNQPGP
T7 sequence (P07949 29-1114 R813Q): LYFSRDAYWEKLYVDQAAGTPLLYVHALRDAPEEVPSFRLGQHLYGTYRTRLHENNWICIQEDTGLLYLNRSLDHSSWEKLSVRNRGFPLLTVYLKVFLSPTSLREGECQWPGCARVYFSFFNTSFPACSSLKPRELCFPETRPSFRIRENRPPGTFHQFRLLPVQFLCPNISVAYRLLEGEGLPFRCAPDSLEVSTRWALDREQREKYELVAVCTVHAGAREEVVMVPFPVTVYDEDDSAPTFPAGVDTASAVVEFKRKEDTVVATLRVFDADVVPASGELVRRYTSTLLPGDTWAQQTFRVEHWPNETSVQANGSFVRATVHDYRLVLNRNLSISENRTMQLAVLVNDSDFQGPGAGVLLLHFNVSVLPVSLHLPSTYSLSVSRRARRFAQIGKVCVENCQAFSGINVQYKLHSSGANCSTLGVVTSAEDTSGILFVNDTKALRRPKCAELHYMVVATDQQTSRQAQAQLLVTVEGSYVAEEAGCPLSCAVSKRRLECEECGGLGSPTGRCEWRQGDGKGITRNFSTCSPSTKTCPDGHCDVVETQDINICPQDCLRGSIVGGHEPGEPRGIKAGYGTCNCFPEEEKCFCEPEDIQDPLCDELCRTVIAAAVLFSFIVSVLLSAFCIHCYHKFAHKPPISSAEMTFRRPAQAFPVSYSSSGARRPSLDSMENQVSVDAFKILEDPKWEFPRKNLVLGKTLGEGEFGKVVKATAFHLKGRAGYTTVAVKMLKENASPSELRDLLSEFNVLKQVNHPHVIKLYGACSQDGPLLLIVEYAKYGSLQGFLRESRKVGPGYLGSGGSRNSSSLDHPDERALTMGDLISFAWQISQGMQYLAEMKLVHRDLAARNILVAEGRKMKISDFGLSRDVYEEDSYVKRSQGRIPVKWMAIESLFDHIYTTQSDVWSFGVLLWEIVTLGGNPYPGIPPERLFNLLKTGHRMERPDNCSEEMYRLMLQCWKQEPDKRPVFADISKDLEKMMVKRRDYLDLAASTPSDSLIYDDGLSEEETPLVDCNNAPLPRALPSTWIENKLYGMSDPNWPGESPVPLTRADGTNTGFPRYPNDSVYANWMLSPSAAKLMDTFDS
T3 sequence (O75676 whole entry): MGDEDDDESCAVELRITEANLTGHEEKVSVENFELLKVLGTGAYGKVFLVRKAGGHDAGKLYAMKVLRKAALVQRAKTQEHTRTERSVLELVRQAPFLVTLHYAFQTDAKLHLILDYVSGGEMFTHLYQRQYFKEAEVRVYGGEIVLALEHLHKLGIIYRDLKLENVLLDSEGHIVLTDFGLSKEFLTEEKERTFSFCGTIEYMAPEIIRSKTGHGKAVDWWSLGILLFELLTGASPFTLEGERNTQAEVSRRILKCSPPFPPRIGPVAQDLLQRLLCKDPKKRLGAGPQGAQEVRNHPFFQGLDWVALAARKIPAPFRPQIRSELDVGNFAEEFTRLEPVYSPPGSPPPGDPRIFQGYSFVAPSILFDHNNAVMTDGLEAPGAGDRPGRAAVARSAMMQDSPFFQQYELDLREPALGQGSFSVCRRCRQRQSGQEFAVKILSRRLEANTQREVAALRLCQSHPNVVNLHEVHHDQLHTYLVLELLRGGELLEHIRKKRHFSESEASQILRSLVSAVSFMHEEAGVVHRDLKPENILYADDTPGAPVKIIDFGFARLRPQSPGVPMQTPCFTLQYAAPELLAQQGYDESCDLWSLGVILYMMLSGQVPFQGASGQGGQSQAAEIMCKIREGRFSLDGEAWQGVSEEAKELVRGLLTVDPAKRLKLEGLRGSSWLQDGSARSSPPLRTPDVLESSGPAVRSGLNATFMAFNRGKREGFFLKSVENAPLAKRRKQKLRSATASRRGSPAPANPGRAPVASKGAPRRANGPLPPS
T6 sequence (Q9UBS0 whole entry): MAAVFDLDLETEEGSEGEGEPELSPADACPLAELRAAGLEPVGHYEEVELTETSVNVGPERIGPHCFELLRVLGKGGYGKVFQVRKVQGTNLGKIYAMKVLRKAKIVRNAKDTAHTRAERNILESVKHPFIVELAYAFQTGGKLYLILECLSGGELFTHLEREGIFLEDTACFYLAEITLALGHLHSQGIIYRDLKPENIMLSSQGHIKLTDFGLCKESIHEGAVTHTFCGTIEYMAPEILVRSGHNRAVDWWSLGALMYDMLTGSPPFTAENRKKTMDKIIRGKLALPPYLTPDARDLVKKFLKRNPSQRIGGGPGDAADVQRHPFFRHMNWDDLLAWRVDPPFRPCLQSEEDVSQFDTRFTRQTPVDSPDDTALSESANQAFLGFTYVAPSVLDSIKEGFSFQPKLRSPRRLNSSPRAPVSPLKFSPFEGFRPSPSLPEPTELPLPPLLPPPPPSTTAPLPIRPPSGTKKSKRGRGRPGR
T10 sequence (P21802 22-821 K526E): as the sequence (P21802 22-821 R612T) above, with K505E, T591R counted along it

For the molecule `CC(C)c1cc(-c2n[nH]c(=O)n2-c2ccc3c(ccn3C)c2)c(O)cc1O` [Ganetespib (STA9090)], the remaining activity at 10 µM on 382 unique human kinases [1] turned out to be 74.6%; on 382 unique human kinases [2] it was 79.3%; at 382 unique human kinases [3], 87.3%; at 382 unique human kinases [4] it was 105%; on 382 unique human kinases [5], 68.6%; at 382 unique human kinases [6], 96.6%. For the same molecule, the remaining activity at 10 µM at 382 unique human kinases [7] worked out at 78%; on 382 unique human kinases [8], 67.9%; at 382 unique human kinases [9], 90.4%; on 382 unique human kinases [10] it was 68.8%.

As to `CC(C)c1cc(-c2n[nH]c(=O)n2-c2ccc3c(ccn3C)c2)c(O)cc1O` [Ganetespib], the figures for the remaining activity at 10 µM at 382 unique human kinases [11] and on 382 unique human kinases [12] were 117% and 93%, respectively.

Consider `CCNC(=O)c1noc(-c2cc(C(C)C)c(O)cc2O)c1-c1ccc(CN2CCOCC2)cc1` [Luminespib (AUY-922)], for which the “% Enzyme Activity (relative to DMSO controls)” value at 382 unique human kinases [1] is given as 101.62%; on 382 unique human kinases [2], 105.09%; at 382 unique human kinases [3] it was 94.10%; on 382 unique human kinases [4] it was 106.26%; on 382 unique human kinases [5] it was 112.07%; at 382 unique human kinases [6] it was 108.19%. For the same molecule, the “% Enzyme Activity (relative to DMSO controls)” value on 382 unique human kinases [7] was found to be 103.53%; on 382 unique human kinases [8] it was 98.51%; on 382 unique human kinases [9], 109.49%; at 382 unique human kinases [10], 99.92%. The remaining activity at 10 µM is 104% at 382 unique human kinases [1]; 106% on 382 unique human kinases [2]; 94.4% on 382 unique human kinases [3]; 107% on 382 unique human kinases [4]; 114% at 382 unique human kinases [5]; 113% on 382 unique human kinases [6]. The remaining activity at 10 µM at 382 unique human kinases [7] came out at 105%; at 382 unique human kinases [8], 102%; at 382 unique human kinases [9], 113%; at 382 unique human kinases [10] it was 102%.

With `CCNC(=O)c1noc(-c2cc(C(C)C)c(O)cc2O)c1-c1ccc(CN2CCOCC2)cc1` [Luminespib], on 382 unique human kinases [11], the “% Enzyme Activity (relative to DMSO controls)” value was found to be 98.90% and the remaining activity at 10 µM is 101%. For the same molecule, at 382 unique human kinases [12], the “% Enzyme Activity (relative to DMSO controls)” value is 96.29% and the remaining activity at 10 µM is 96.8%.
